# Measured values as given in US11873303B2, “Substituted pyrazoles as type II IRAK inhibitors” (Merck Patent GmbH, priority 2018, dated 2024).
# Columns and labels:
# [1] = target: T1, IRAK1 (human purified recombinant enzyme His-TEV-IRAK1 (194-712)) (Homo sapiens, UniProt P51617); assay: IRAK1 enzymatic assay (ADP-Glo luminescence); format: biochemical; settings: human recombinant IRAK1, ATP 1 μM
# T1 construct: His-TEV-IRAK1 (194-712); His (N); TEV cleavage site (N)
# Method: IRAK1 is a human purified recombinant enzyme (His-TEV-IRAK1 (194-712)). In this assay, IRAK1 hydrolysed ATP and autophosphorylated. Measurement of IRAK-1 inhibition was performed in 384-well format based on luminescence assay (ADP-Glo™ Kinase Assay from Promega). Purified human recombinant IRAK1 (0.3 μg/ml) and serial diluted compounds in DMSO (range of concentration from 10 μM to 0.5 nM) or controls (1% DMSO) were incubated for 15 minutes at RT in assay buffer containing 50 mM Hepes pH 7.0, Fatty acid-free BSA 0.1%, Dithiothreitol (DTT) 2 mM, MgCl2 10 mM, EGTA 0.5 mM, Triton X-100 0.01%. The kinase reaction was then initiated by the addition of ATP at a concentration of 1 μM. After 2 hours of incubation at RT, the reaction was stopped and the unconsumed ATP depleted by the addition of ADP-Glo™ Reagent according to supplier instructions. After 40 minutes of incubation at RT, the Kinase Detection Reagent was then added to the assay plate according to supplier instructions. After 20 minutes of incubation at RT, the luminescence signal was measured with a luminometer (PerkinElmer Envision or equivalent reader).
# [2] = target: T2, IRAK4 (human purified recombinant enzyme His-TEV-IRAK4 (1-460)) (Homo sapiens, UniProt Q9NWZ3); assay: IRAK4 enzymatic assay (ADP-Glo luminescence); format: biochemical; settings: human recombinant IRAK4, ATP 2 μM, STK1-biotin peptide
# T2 construct: His-TEV-IRAK4 (1-460); His (N); TEV cleavage site (N)
# T2 sequence (Q9NWZ3 1-460): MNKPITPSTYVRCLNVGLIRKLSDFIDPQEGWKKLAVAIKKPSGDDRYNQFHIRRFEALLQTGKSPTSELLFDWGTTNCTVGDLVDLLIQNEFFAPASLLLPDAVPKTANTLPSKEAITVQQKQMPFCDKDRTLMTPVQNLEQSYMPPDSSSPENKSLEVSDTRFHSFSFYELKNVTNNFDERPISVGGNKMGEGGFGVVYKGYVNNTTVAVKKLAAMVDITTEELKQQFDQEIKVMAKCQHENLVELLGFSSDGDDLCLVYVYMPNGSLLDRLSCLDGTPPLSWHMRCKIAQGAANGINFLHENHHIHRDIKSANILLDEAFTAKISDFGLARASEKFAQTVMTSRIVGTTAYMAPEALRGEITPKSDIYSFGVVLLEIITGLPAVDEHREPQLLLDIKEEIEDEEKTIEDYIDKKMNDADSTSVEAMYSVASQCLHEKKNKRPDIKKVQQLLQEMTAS
# Method: IRAK4 is a human purified recombinant enzyme (His-TEV-IRAK4 (1-460)). In this assay, IRAK4 hydrolysed ATP, autophosphorylated and phosphorylated a Serine/Threonine generic peptidic substrate (STK: 61ST1BLC from CisBio International). Measurement of IRAK-4 inhibition was performed in 384-well format based on a luminescence assay (ADP-Glo™ Kinase Assay from Promega). Purified human recombinant IRAK4 (0.3 μg/ml) and serial diluted compounds in DMSO (range of concentration from 10 μM to 0.5 nM) or controls (1% DMSO) were incubated for 15 minutes at RT in assay buffer containing 50 mM Hepes pH 7.0, Fatty acid-free BSA 0.1%, Dithiothreitol (DTT) 2 mM, MgCl2 10 mM, EGTA 0.5 mM, Triton X-100 0.01%, MnCl2 5 mM. The kinase reaction was then initiated by the addition of ATP (2 μM) and the peptidic substrate STK1-biotin peptide (300 nM). After 2 hours of incubation at RT, the reaction was stopped and the unconsumed ATP depleted by the addition of ADP-Glo™ Reagent according to supplier instructions. After 40 minutes of incubation at RT, the Kinase Detection Reagent was then added to the assay plate according to supplier instructions. After 20 minutes of incubation at RT, the luminescence signal was measured with a plate-reading luminometer (PerkinElmer Envision or equivalent reader).
# [3] = test system: TLR7 induced IL-6 secretion in human mononuclear cells (PBMC's); assay: TLR7 induced IL-6 in human PBMC's; format: cell-based; settings: TLR7 ligand 2 uM overnight, IL-6 AlphaLISA
# Method: TLR7 Induced IL-6 in Human PBMC's
# Human PBMC assay was used as one of the functional assays to monitor the activity of IRAK1 and IRAK4 small molecule inhibitors on TLR7 induced IL-6 secretion in human mononuclear cells (PBMC's). Human PBMCs were prepared from buffy coats (whole blood enriched with leukocytes and platelets) obtained from healthy volunteers used either fresh or frozen were plated in assay media (RPMI+2% P/S/L-glu+10% HI-FBS) and pre-treated with compounds in DMSO/media (range of concentrations from 25 uM to 0.4 nM) or controls (0.25% DMSO) for 30 minutes at 37° C. in assay media. Following pre-treatment with IRAK1 and IRAK4 inhibitors, PBMC's were stimulated with TLR7 specific ligand (2 uM) overnight (16-18 hrs) at 37° C. After incubation supernatant was transferred to 384 well PE AlphaPlate-384 and IL-6 was quantified using Perkin Elmer IL-6 Alpha LISA kit (AL223C). Plates were read on an Envision® plate reader with Alpha Technology®.
# T1 sequence (P51617 194-712): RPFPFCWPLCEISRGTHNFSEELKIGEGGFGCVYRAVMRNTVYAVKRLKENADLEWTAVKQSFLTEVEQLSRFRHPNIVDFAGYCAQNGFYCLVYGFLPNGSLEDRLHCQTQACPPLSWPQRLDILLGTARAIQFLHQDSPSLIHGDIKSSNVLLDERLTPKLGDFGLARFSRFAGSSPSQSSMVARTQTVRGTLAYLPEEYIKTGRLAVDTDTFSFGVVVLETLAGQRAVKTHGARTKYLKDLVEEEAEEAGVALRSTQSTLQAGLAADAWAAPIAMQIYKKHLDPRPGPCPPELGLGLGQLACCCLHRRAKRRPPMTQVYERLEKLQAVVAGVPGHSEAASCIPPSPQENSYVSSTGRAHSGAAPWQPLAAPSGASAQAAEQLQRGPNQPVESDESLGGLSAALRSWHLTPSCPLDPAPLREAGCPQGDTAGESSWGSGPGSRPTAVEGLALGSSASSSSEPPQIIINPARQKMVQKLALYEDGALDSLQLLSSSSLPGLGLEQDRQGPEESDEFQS
SMILES,IC50 [1],IC50 [2],melting point,IC50 [3]
"Cc1ccc(-n2nc(C(C)(C)C)cc2NC(=O)N[C@H]2CC[C@@H](c3cn(C)c4ncnc(N)c43)CC2)cc1 [Example 27, 3-[3-tert-butyl-1-(4-methylphenyl)-1H-pyrazol-5-yl]-1-[(1s,4s)-4-{4-amino-7-methyl-7H-pyrrolo[2,3-d]pyrimidin-5-yl}cyclohexyl]urea]",0.1 to 1 µM,1 to 5 µM,228 to 230 °C,
"Cc1ccc(-n2nc(C(F)(F)F)cc2NC(=O)Nc2ccc(-c3nn(C)c4ncnc(N)c34)c(F)c2)cc1 [Example 13, 1-[4-(4-Amino-1-methyl-1H-pyrazolo[3,4-d]pyrimidin-3-yl)-3-fluoro-phenyl]-3-(2-p-tolyl-5-trifluoromethyl-2H-pyrazol-3-yl)-urea]",0.1 to 1 µM,> 5 µM,,0.1 to 1 µM
"CC(C)c1ccc(-n2nc(C(C)(C)C)cc2NC(=O)Cc2ccc(-c3nn(C)c4ncnc(N)c34)cc2F)cc1 [Example 16, 2-[4-(4-Amino-1-methyl-1H-pyrazolo[3,4-d]pyrimidin-3-yl)-2-fluoro-phenyl]-N-[5-tert-butyl-2-(4-isopropyl-phenyl)-2H-pyrazol-3-yl]-acetamide]",< 0.1 µM,0.1 to 1 µM,,1 to 5 µM
"Cc1ccc(-n2nc(C(C)(C)C)cc2NC(=O)Nc2ccc(-c3nn(C)c4ncnc(N)c34)c(Cl)c2)cc1 [Example 8, 1-[4-(4-Amino-1-methyl-1H-pyrazolo[3,4-d]pyrimidin-3-yl)-3-chloro-phenyl]-3-(5-tert-butyl-2-p-tolyl-2H-pyrazol-3-yl)-urea]",< 0.1 µM,< 0.1 µM,,< 0.1 µM
"Cc1ccc(-n2nc(C(C)(C)C)cc2NC(=O)Nc2ccc(-c3nn(C)c4ncnc(N)c34)cc2Cl)cc1 [Example 5, 1-[4-(4-Amino-1-methyl-1H-pyrazolo[3,4-d]pyrimidin-3-yl)-2-chloro-phenyl]-3-(5-tert-butyl-2-p-tolyl-2H-pyrazol-3-yl)-urea]",< 0.1 µM,< 0.1 µM,,< 0.1 µM
"Cc1ccc(-n2nc(C(C)(C)C(F)(F)F)cc2NC(=O)Nc2ccc(-c3csc4ncnc(N)c34)cc2Cl)cc1 [Example 24, 1-[4-(4-Amino-thieno[2,3-d]pyrimidin-5-yl)-2-chloro-phenyl]-3-[2-p-tolyl-5-(2,2,2-trifluoro-1,1-dimethyl-ethyl)-2H-pyrazol-3-yl]-urea]",< 0.1 µM,0.1 to 1 µM,,< 0.1 µM

# The next lines start with results.
IC50 [1],IC50 [2],melting point,SMILES,IC50 [3]
< 0.1 µM,1 to 5 µM,192 to 194 °C,"Cc1ccc(-n2nc(C(C)(C)CO)cc2NC(=O)Nc2ccc(-c3nn(C)c4ncnc(N)c34)cc2Cl)cc1 [Example 17, 1-(4-{4-amino-1-methyl-1H-pyrazolo[3,4-d]pyrimidin-3-yl}-2-chlorophenyl)-3-[3-(1-hydroxy-2-methylpropan-2-yl)-1-(4-methylphenyl)-1H-pyrazol-5-yl]urea]",< 0.1 µM
< 0.1 µM,1 to 5 µM,170 to 172 °C,"Cc1ccc(-n2nc(C3(C)COC3)cc2NC(=O)Nc2ccc(-c3nn(C)c4ncnc(N)c34)cc2Cl)cc1 [Example 18, 1-(4-{4-amino-1-methyl-1H-pyrazolo[3,4-d]pyrimidin-3-yl}-2-chlorophenyl)-3-[3-(3-methyloxetan-3-yl)-1-(4-methylphenyl)-1H-pyrazol-5-yl]urea]",0.1 to 1 µM
< 0.1 µM,0.1 to 1 µM,,"Cc1ccc(-n2nc(C(C)(C)C)cc2NC(=O)Nc2ccc(-c3csc4ncnc(N)c34)c(F)c2)cc1 [Example 6, 1-[4-(4-Amino-thieno[2,3-d]pyrimidin-5-yl)-3-fluoro-phenyl]-3-(5-tert-butyl-2-p-tolyl-2H-pyrazol-3-yl)-urea]",< 0.1 µM
< 0.1 µM,0.1 to 1 µM,,"Cc1ccc(-n2nc(C(C)(C)C)cc2NC(=O)Nc2ccc(-c3nn(C)c4ccnc(N)c34)cc2F)cc1 [Example 26, 1-[4-(4-Amino-1-methyl-1H-pyrazolo[4,3-c]pyridin-3-yl)-2-fluoro-phenyl]-3-(5-tert-butyl-2-p-tolyl-2H-pyrazol-3-yl)-urea]",< 0.1 µM
< 0.1 µM,0.1 to 1 µM,,"CC(C)c1ccc(-n2nc(C(C)(C)C)cc2NC(=O)Nc2ccc(-c3nn(C)c4ncnc(N)c34)c(F)c2)cc1 [Example 3, 1-[4-(4-Amino-1-methyl-1H-pyrazolo[3,4-d]pyrimidin-3-yl)-3-fluoro-phenyl]-3-[5-tert-butyl-2-(4-isopropyl-phenyl)-2H-pyrazol-3-yl]-urea]",< 0.1 µM
< 0.1 µM,0.1 to 1 µM,,"Cc1ccc(-n2nc(C(C)(C)C)cc2NC(=O)C(O)c2ccc(-c3nn(C)c4ncnc(N)c34)cc2)cc1 (centres unmarked) [Example 19, 2-[4-(4-Amino-1-methyl-1H-pyrazolo[3,4-d]pyrimidin-3-yl)-phenyl]-N-(5-tert-butyl-2-p-tolyl-2H-pyrazol-3-yl)-2-hydroxy-acetamide]",0.1 to 1 µM
